Assay results taken from patent US9951021B2, “Compounds for inhibiting c-Myc/Max/DNA complex formation” (NATIONAL CANCER CENTER, priority 2016, dated 2018).

Target: T1, recombinant c-Myc/Max (Homo sapiens, UniProt P01106+P61244)
T1 construct: made in house
Experiment: Electrophoretic mobility shift assay (EMSA): inhibitory activity on DNA binding of recombinant c-Myc/Max
Settings: read-out: protein assay IC50
Protocol: 1) Preparation of Recombinant c-Myc and Max Proteins
Recombinant proteins were prepared as described in the following references: K. C. Jung et al., Fatty Acids, Inhibitors for the DNA Binding of c-Myc/Max Dimer, Suppress Proliferation and Induce Apoptosis of Differentiated HL-60 Human Leukemia Cell, Leukemia, 2006, 20(1), 122-7 or Kyung-Chae Jeong et al., Small-Molecule Inhibitors of c-Myc Transcriptional Factor Suppress Proliferation and Induce Apoptosis of Promyelocytic Leukemia Cell via Cell Cycle Arrest, Mol. BioSyst., 2010, 6, 1503-1509.
2) Electrophoretic Mobility Shift Assay (EMSA)
The inhibitory activity of each candidate compound on DNA binding of recombinant c-Myc/Max was measured using an electrophoretic mobility shift assay (EMSA). The ratio of protein-DNA complexes in each sample was evaluated by measuring band intensity. The oligonucleotides (E-box) corresponding to the consensus binding site of Myc/Max were dimerized through an annealing process. The protein mixture was incubated at room temperature for 5 minutes, and a DMSO solution containing each candidate compound was added thereto. The mixture was further incubated for 5 minutes, and the biotinylated DNA was added. To achieve a state of equilibrium, the final mixture was incubated at room temperature for 10 minutes. The protein-DNA complexes were separated from unbound free DNA by pre-electrophoresis using 8% polyacrylamide gel and 1×TBE buffer. After pre-electrophoresis, electrophoresis was performed at 120 V for 1 hour in 1×TBE buffer. Each band was visualized using HRP-conjugated streptavidin and an ECL solution, and band intensity was measured using image analysis software.

T1 sequence (P01106 whole entry): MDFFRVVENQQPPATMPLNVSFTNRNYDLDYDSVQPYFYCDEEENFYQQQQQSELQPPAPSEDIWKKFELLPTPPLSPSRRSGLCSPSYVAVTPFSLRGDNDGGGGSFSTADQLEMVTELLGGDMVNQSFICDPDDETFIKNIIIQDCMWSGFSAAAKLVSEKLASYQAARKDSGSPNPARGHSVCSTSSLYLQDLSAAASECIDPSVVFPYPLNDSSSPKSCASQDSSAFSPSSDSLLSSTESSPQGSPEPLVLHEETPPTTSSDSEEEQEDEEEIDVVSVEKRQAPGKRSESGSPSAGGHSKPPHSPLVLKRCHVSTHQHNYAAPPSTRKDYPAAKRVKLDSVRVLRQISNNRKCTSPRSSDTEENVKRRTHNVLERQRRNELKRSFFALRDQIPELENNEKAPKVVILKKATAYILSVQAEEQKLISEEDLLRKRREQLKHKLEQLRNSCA
T1 sequence (P61244 whole entry): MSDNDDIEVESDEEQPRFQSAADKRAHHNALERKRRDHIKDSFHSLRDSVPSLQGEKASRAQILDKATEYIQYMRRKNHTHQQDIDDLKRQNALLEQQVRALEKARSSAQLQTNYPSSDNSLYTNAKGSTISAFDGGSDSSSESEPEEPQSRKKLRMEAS

Row | Structure (SMILES) | IC50
1 | CC(=O)c1c([S+](C)[O-])[nH]c2c(Br)ccc(Cl)c2c1=O (stereo not drawn) [Compound 1, 3-acetyl-8-bromo-5-chloro-2-(methylsulfinyl)quinolin-4(1H)-one] | < 1000 nM
2 | CSc1[nH]c2c(Br)ccc(Cl)c2c(=O)c1C(C)=O [Compound 2, 3-acetyl-8-bromo-5-chloro-2-(methylthio)quinolin-4(1H)-one] | < 1000 nM
3 | CSc1c(C(C)=O)c(=O)c2c(Cl)ccc(Br)c2n1C [Compound 5, 3-acetyl-8-bromo-5-chloro-1-methyl-2-(methylthio)quinolin-4(1H)-one] | < 1000 nM
4 | CC(=O)c1c([S+](C)[O-])[nH]c2c(Cl)ccc(Cl)c2c1=O (stereo not drawn) [Compound 6, 3-acetyl-5,8-dichloro-2-(methylsulfinyl)quinolin-4(1H)-one] | < 1000 nM
5 | CSc1c(C(C)=O)c(=O)c2cc(F)ccc2n1C [Compound 7, 3-acetyl-6-fluoro-1-methyl-2-(methylthio)quinolin-4(1H)-one] | < 1000 nM
6 | CSc1[nH]c2ccc(F)cc2c(=O)c1C(C)=O [Compound 8, 1-(6-fluoro-4-hydroxy-2-(methylthio)quinolin-3-yl)ethan-1-one] | < 1000 nM
7 | CC(=O)c1c([S+](C)[O-])n(C(=O)c2ccc(Br)cc2)c2c(Br)ccc(Cl)c2c1=O (stereo not drawn) [Compound 9, 3-acetyl-8-bromo-1-(4-bromobenzoyl)-5-chloro-2-(methylsulfinyl)quinolin-4(1H)-one] | < 1000 nM
8 | CC(=O)c1c(SCc2ccc(Cl)cc2)[nH]c2c(Br)ccc(Cl)c2c1=O [Compound 10, 3-acetyl-8-bromo-5-chloro-2-((4-chlorobenzyl)thio)quinolin-4(1H)-one] | < 1000 nM
9 | CC(=O)c1c([S+]([O-])Cc2ccc(Cl)cc2)[nH]c2c(Br)ccc(Cl)c2c1=O (stereo not drawn) [Compound 11, 3-acetyl-8-bromo-5-chloro-2-((4-chlorobenzyl)sulfinyl)quinolin-4(1H)-one] | < 1000 nM
10 | CC(=O)c1c(Sc2ccccc2)[nH]c2c(Br)ccc(Cl)c2c1=O [Compound 12, 3-acetyl-8-bromo-5-chloro-2-(phenylthio)quinolin-4(1H)-one] | < 1000 nM
11 | CC(=O)c1c([S+]([O-])c2ccccc2)[nH]c2c(Br)ccc(Cl)c2c1=O (stereo not drawn) [Compound 13, 3-acetyl-8-bromo-5-chloro-2-(phenylsulfinyl)quinolin-4(1H)-one] | < 1000 nM
12 | COc1ccccc1Sc1[nH]c2c(Br)ccc(Cl)c2c(=O)c1C(C)=O [Compound 14, 3-acetyl-8-bromo-5-chloro-2-((2-methoxyphenyl)thio)quinolin-4(1H)-one] | < 1000 nM
13 | COc1ccccc1[S+]([O-])c1[nH]c2c(Br)ccc(Cl)c2c(=O)c1C(C)=O (stereo not drawn) [Compound 15, 3-acetyl-8-bromo-5-chloro-2-((2-methoxyphenyl)sulfinyl)quinolin-4(1H)-one] | < 1000 nM
14 | CC(=O)c1c(Sc2ccc(Br)cc2)[nH]c2c(Br)ccc(Cl)c2c1=O [Compound 16, 3-acetyl-8-bromo-2-((4-bromophenyl)thio)-5-chloroquinolin-4(1H)-one] | < 1000 nM
15 | CC(=O)c1c([S+]([O-])c2ccc(Br)cc2)[nH]c2c(Br)ccc(Cl)c2c1=O (stereo not drawn) [Compound 17, 3-acetyl-8-bromo-2-((4-bromophenyl)sulfinyl)-5-chloroquinolin-4(1H)-one] | < 1000 nM
16 | CSc1c(C(C)=O)c(=O)c2c(Cl)ccc(Br)c2n1C(C)=O [Compound 18, 1,1′-(8-bromo-5-chloro-2-(methylthio)-4-oxoquinoline-1,3(4H)-diyl)bis(ethan-1-one)] | < 1000 nM
17 | CC(=O)c1c([S+](C)[O-])n(C(C)=O)c2c(Br)ccc(Cl)c2c1=O (stereo not drawn) [Compound 19, 1,1′-(8-bromo-5-chloro-2-(methylsulfinyl)-4-oxoquinoline-1,3-(4H)-diyl)bis(ethan-1-one)] | < 1000 nM
18 | CC(=O)c1c([S+]([O-])Cc2ccccc2)n(C(=O)c2ccc(Br)cc2)c2c(Br)ccc(Cl)c2c1=O (stereo not drawn) [Compound 20, 3-acetyl-2-(benzylsulfinyl)-8-bromo-1-(4-bromobenzoyl)-5-chloroquinolin-4(1H)-one] | < 1000 nM
